Source: US4279926A, “Method of relieving pain and treating inflammatory conditions in warm-blooded animals” (priority 1974, dated 1981)
Where a name gives a salt, the structure may show the parent alone.

Assays:
Solubility = format: physicochemical
gastro-intestinal mucosa = details: in vivo; cited from earlier work
[1] = test system: carrageenin oedema, inflamed paw; assay: Carrageenin oedema of the rat paw (anti-inflammatory action, paw size/volume); format: in vivo, male Wistar rats; details: oral, Tables 1, 2 and 3
[2] = test system: pain threshold in the inflamed paw (carrageenin oedema); assay: Pain threshold under pressure of the inflamed (carrageenin) rat paw (analgesic action); details: for Pain threshold - carrageenin oedema: Table 3
Protocol: At intervals after the treatment, the size of the treated paw and its sensitivity to pain under pressure were evaluated.

pH of aqueous solution = format: physicochemical
clinical = details: human, in vivo, po, Human blood level, single oral dose 500 mg D,L-lysine salt (Table 5) or equivalent 300 mg sodium salt (Table 6), serum, as free acid
Protocol: The blood levels were then determined after 0.5, 1, 1.5, 2, 3, 4 and 5 hours.

Q: Which “Solubility in water” value (Solubility) does the source give for `CC(C(=O)O)c1ccc(C2CCCCC2)cc1` (stereo not drawn) [Example 11, arginine salt of 2-(4-cyclohexyl-phenyl)-propionic acid] here?
A: moderately soluble in water

Q: For `C=CCOc1ccc(CC(=O)O)cc1Cl` [Example 10, arginine salt of 2-(3-chloro-4-allyloxyphenyl)-acetic acid], which “Solubility in water” value (Solubility) is on record?
A: moderately soluble in water

Q: For `CC(=O)Oc1ccccc1C(=O)O` [aspirin], which “Undesired side-effects (gastro-intestinal intolerance, ulceration) compared with phenyl-alkanoic acids” value (gastro-intestinal mucosa) is on record?
A: also show these undesired side-effects in an even more pronounced form

Q: What does the source list for `CC(C)Cc1ccc(C(C)C(=O)O)cc1` (stereo not drawn) [Example 3]?
A: Anti-inflammatory and analgesic action compared with free acid and phenyl-butazone [1]: as active as or more active than the equivalent dose of the corresponding free acid and is as effective as a double dose of phenyl-butazone; Analgesic action, intravenous, compared with free acid and phenyl-butazone ([2]; i.v., doses of the order of 10 times less, Table 4): clearly more active and quicker acting than both the free acid and phenyl-butazone

Q: For `CC(C)Cc1ccc(CC(=O)O)cc1` [Example 4, lysine salt of 2-(4-isobutyl-phenyl)-acetic acid], which “Solubility in water” value (Solubility) is on record?
A: soluble in water

Q: Which “Solubility in water” value (Solubility) does the source give for `O=C(O)Cc1ccccc1Oc1ccc(Cl)cc1Cl` [Example 6, lysine salt of 2-(2,4-dichlorophenoxy)-phenyl-acetic acid] here?
A: water-soluble

Q: Which results are given for `CC(C)Cc1ccc(C(C)C(=O)O)cc1` (racemic) [Example 8, D,L-arginine salt of 2-(4-isobutylphenyl)-propionic acid]?
A: Solubility in water (Solubility): moderately soluble in water; pH of aqueous solution (pH of aqueous solution): pH close to neutrality

Q: With `CC(C)Cc1ccc(C(C)C(=O)O)cc1` (stereo not drawn) [Example 9] as the compound, how does the “Solubility in water” value (Solubility) read?
A: analogous to those of the product obtained in Example 8

Q: And the “pH of aqueous solution” value (pH of aqueous solution)?
A: analogous to those of the product obtained in Example 8

Q: With `CC(C(=O)O)c1cccc(Oc2ccccc2)c1` (stereo not drawn) [Example 12, arginine salt of 2-(3-phenoxy-phenyl)-propionic acid] as the compound, how does the “Solubility in water” value (Solubility) read?
A: moderately soluble in water

Q: What does the source list for `CC(C)Cc1ccc(C(C)C(=O)[O-])cc1.[Na+]` (stereo not drawn)?
A: concentration at 0.5 h (clinical; subject B): 10.5 µg/mL; concentration at 0.5 h (clinical; subject C): 3.8 µg/mL; concentration at 0.5 h (clinical; subject D): 5.5 µg/mL; concentration at 0.5 h (clinical; subject E): 3.3 µg/mL; concentration at 1 h (clinical; subject B): 16.6 µg/mL; concentration at 1 h (clinical; subject C): 4.5 µg/mL; concentration at 1 h (clinical; subject D): 6 µg/mL; concentration at 1 h (clinical; subject E): 9.8 µg/mL; concentration at 1.5 h (clinical; subject B): 11 µg/mL; concentration at 1.5 h (clinical; subject C): 6 µg/mL; concentration at 1.5 h (clinical; subject D): 7 µg/mL; concentration at 1.5 h (clinical; subject E): 8.7 µg/mL; concentration at 2 h (clinical; subject A): 0.9 µg/mL; concentration at 2 h (clinical; subject B): 10.3 µg/mL; concentration at 2 h (clinical; subject C): 8.7 µg/mL; concentration at 2 h (clinical; subject D): 16.3 µg/mL; concentration at 2 h (clinical; subject E): 7.9 µg/mL; concentration at 3 h (clinical; subject A): 1.3 µg/mL; concentration at 3 h (clinical; subject B): 3 µg/mL; concentration at 3 h (clinical; subject C): 8.7 µg/mL; concentration at 3 h (clinical; subject D): 13.6 µg/mL; concentration at 3 h (clinical; subject E): 9.6 µg/mL; concentration at 4 h (clinical; subject A): 4.2 µg/mL; concentration at 4 h (clinical; subject B): 2.7 µg/mL; concentration at 4 h (clinical; subject C): 9.6 µg/mL; concentration at 4 h (clinical; subject D): 7.3 µg/mL; concentration at 4 h (clinical; subject E): 7 µg/mL; concentration at 5 h (clinical; subject A): 6.3 µg/mL; concentration at 5 h (clinical; subject B): 1.4 µg/mL; concentration at 5 h (clinical; subject C): 4.3 µg/mL; concentration at 5 h (clinical; subject D): 6.9 µg/mL; concentration at 5 h (clinical; subject E): 5.3 µg/mL; concentration at 0.5 h (clinical; mean): 8.3 µg/mL; concentration at 1 h (clinical; mean): 13.6 µg/mL; concentration at 1.5 h (clinical; mean): 11.6 µg/mL; concentration at 2 h (clinical; mean): 12.7 µg/mL; concentration at 3 h (clinical; mean): 10.8 µg/mL; concentration at 4 h (clinical; mean): 7.8 µg/mL; concentration at 5 h (clinical; mean): 5.4 µg/mL

Q: With `CC(C)Cc1ccc(C(C)C(=O)O)cc1` (stereo not drawn) [Ibuprofen] as the compound, how does the “Pain threshold - carrageenin oedema” value ([2]; 50 mg/kg p.o. (lysine salt: 30 as active substance), 0 hrs, control 101.7 ± 3.19, 50 mg/kg) read?
A: 101.0 ± 2.85 g

Q: What about the “Pain threshold - carrageenin oedema” value ([2]; 50 mg/kg p.o. (lysine salt: 30 as active substance), 3 hrs, control 52.7 ± 2.00, **p = 0.01, 50 mg/kg) of the same compound?
A: 85.7 ± 4.05 g

Q: What about the “Pain threshold - carrageenin oedema” value ([2]; 50 mg/kg p.o. (lysine salt: 30 as active substance), 5 hrs, control 51.3 ± 2.15, **p = 0.01, 50 mg/kg) of the same compound?
A: 70.7 ± 3.45 g

Q: What about the “Pain threshold - carrageenin oedema” value ([2]; 100 mg/kg p.o. (lysine salt: 60 as active substance), 0 hrs, control 101.7 ± 3.19, 100 mg/kg) of the same compound?
A: 105.3 ± 3.10 g

Q: What about the “Pain threshold - carrageenin oedema” value ([2]; 100 mg/kg p.o. (lysine salt: 60 as active substance), 3 hrs, control 52.7 ± 2.00, **p = 0.01, 100 mg/kg) of the same compound?
A: 104.3 ± 3.51 g

Q: And the “Pain threshold - carrageenin oedema” value ([2]; 100 mg/kg p.o. (lysine salt: 60 as active substance), 5 hrs, control 51.3 ± 2.15, **p = 0.01, 100 mg/kg)?
A: 80.3 ± 5.66 g

Q: And the “Pain threshold - carrageenin oedema” value ([2]; 200 mg/kg p.o. (lysine salt: 120 as active substance), 0 hrs, control 101.7 ± 3.19, 200 mg/kg)?
A: 101.0 ± 3.21 g

Q: What about the “Pain threshold - carrageenin oedema” value ([2]; 200 mg/kg p.o. (lysine salt: 120 as active substance), 3 hrs, control 52.7 ± 2.00, **p = 0.01, 200 mg/kg) of the same compound?
A: 119.7 ± 3.50 g

Q: And the “Pain threshold - carrageenin oedema” value ([2]; 200 mg/kg p.o. (lysine salt: 120 as active substance), 5 hrs, control 51.3 ± 2.15, **p = 0.01, 200 mg/kg)?
A: 85.7 ± 4.70 g
